Source: patent US9776995B2, “Bicyclic sulfonamide compounds as sodium channel inhibitors” (AMGEN INC., priority 2013, dated 2017)

molecular target: Nav 1.7 (Homo sapiens (Human), UniProt Q15858); test: Nav 1.7 in vitro PX assay (PatchXpress whole cell voltage clamp); type: cell-based; details: HEK 293 cells stably transfected with human Nav1.7; PatchXpress; partially inactivated state;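 further: holding potential set for 20 to 50% inactivation, sodium current evoked by a 20 ms step to −10 mV, peak current inhibition read after compound exposure, 3–5 cells per concentration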
Sequence (Q15858 whole entry): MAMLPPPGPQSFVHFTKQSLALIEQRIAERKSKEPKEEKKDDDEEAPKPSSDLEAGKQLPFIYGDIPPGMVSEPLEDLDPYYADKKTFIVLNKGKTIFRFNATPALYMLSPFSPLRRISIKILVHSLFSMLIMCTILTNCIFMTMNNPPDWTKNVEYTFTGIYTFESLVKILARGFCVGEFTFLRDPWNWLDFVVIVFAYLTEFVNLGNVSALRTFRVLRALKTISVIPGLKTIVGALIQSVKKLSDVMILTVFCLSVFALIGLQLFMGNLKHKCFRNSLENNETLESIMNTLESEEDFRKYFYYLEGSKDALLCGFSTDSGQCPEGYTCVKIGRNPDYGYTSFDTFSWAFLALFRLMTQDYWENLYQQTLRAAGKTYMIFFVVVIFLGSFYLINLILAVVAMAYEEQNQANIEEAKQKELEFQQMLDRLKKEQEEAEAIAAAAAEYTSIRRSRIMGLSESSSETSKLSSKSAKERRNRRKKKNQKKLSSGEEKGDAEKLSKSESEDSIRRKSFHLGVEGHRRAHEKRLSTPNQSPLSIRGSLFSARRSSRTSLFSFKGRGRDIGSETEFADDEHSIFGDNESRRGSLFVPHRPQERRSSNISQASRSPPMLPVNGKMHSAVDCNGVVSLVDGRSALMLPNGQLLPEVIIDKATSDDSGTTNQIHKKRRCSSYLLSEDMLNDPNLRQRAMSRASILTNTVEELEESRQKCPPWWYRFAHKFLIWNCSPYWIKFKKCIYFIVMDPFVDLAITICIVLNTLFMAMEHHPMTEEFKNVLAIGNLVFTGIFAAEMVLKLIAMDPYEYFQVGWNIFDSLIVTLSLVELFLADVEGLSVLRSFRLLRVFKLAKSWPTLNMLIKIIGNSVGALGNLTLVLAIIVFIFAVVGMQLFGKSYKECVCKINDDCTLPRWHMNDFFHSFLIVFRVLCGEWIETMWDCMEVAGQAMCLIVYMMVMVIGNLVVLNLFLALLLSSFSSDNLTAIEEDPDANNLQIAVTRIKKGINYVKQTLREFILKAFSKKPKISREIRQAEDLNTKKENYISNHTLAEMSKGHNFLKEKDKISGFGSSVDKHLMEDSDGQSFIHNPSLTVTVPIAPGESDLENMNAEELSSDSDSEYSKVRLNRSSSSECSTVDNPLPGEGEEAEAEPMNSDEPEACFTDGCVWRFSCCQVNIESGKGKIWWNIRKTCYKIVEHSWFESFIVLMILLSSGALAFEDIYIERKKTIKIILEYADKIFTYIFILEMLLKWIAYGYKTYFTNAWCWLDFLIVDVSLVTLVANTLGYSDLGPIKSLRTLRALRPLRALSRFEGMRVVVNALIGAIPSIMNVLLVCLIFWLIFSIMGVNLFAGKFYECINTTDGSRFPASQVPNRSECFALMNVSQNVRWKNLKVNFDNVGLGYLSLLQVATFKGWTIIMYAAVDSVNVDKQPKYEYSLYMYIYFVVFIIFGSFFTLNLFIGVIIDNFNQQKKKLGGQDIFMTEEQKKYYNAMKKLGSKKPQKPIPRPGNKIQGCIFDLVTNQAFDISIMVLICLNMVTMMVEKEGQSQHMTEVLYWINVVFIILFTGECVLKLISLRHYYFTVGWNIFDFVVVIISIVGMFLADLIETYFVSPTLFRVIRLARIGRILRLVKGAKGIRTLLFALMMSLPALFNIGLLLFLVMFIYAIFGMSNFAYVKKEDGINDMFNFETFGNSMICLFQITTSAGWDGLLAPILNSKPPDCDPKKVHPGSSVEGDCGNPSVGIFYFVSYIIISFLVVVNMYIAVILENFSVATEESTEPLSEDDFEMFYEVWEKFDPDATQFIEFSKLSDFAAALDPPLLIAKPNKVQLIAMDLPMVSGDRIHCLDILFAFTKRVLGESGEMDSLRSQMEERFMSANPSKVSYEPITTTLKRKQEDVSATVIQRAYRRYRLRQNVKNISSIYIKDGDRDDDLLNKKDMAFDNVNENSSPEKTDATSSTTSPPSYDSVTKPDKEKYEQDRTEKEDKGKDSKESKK

SMILES	IC50 [nM]
COc1cc(-c2cccc(F)c2)c(Cl)cc1-c1c(N)cnc2cc(S(=O)(=O)Nc3ccon3)ccc12 [Example 336, 3-amino-4-(2-chloro-3′-fluoro-5-methoxy-[1,1′-biphenyl]-4-yl)-N-(isoxazol-3-yl)quinoline-7-sulfonamide]	35
COc1cc(-c2cccc(F)c2)c(Cl)cc1-c1c(OC)cnc2cc(S(=O)(=O)Nc3ccon3)ccc12 (atropisomer, axis not shown; (P)) [Example 340, (P)-4-(2-chloro-3′-fluoro-5-methoxy-[1,1′-biphenyl]-4-yl)-N-(isoxazol-3-yl)-3-methoxyquinoline-7-sulfonamide]	84

Second part, the compound after the results:

IC50 [nM]	SMILES
51	COc1cc(-c2ccc(Cl)c(C)c2)c(F)cc1-c1cn(C)c(=O)c2cc(S(=O)(=O)Nc3ccon3)ccc12 [Example 454, 4-(4′-CHLORO-2-FLUORO-5-METHOXY-3′-METHYL-[1,1′-BIPHENYL]-4-YL)-N-(ISOXAZOL-3-YL)-2-METHYL-1-OXO-1,2-DIHYDROISOQUINOLINE-7-SULFONAMIDE]
184	COc1cc(-c2ccc(Cl)c(C)c2)c(F)cc1-c1c[nH]c(=O)c2cc(S(=O)(=O)Nc3ccon3)ccc12 [Example 452, 4-(4′-CHLORO-2-FLUORO-5-METHOXY-3′-METHYL-[1,1′-BIPHENYL]-4-YL)-N-(ISOXAZOL-3-YL)-1-OXO-1,2-DIHYDROISOQUINOLINE-7-SULFONAMIDE]
8	COc1cc(-c2ccc(Cl)c(C)c2)c(F)cc1-c1c(=O)[nH]cc2cc(S(=O)(=O)Nc3ccon3)ccc12 [Example 549, 4-(4′-chloro-2-fluoro-5-methoxy-3′-methyl-4-biphenylyl)-N-3-isoxazolyl-3-oxo-2,3-dihydro-7-isoquinolinesulfonamide]
221	COc1cc(-c2cccc(F)c2)c(Cl)cc1-c1ncnc2cc(S(=O)(=O)Nc3ccc(F)cn3)ccc12 [Example 479]

same assay, conditions: PatchXpress (PX)

IC50 [nM]	SMILES
62.5	COc1cc(-c2cc(C)c(C)cc2C)c(C)cc1-c1ncnc2cc(S(=O)(=O)Nc3ccon3)ccc12 [Example 262, N-3-isoxazolyl-4-(5-methoxy-2,2′,4′,5′-tetramethyl-4-biphenylyl)-7-quinazolinesulfonamide]
243	COc1cc(Cl)c(C)cc1-c1ncnc2cc(S(=O)(=O)Nc3ccon3)ccc12 [Example 247, 4-(4-chloro-2-methoxy-5-methylphenyl)-N-3-isoxazolyl-7-quinazolinesulfonamide]
493	COc1cc(-c2cccc(F)c2)c(Cl)cc1-c1nccc2cc(S(=O)(=O)Nc3cscn3)ccc12 [Example 54, 1-(2-CHLORO-3′-FLUORO-5-METHOXY-[1,1′-BIPHENYL]-4-YL)-N-(THIAZOL-4-YL)ISOQUINOLINE-6-SULFONAMIDE]
85.2	COc1cc(-c2cc(F)cc(F)c2)c(Cl)cc1-c1nncc2cc(S(=O)(=O)Nc3ccsn3)ccc12 [Example 256, 1-(2-chloro-3′,5′-difluoro-5-methoxy-4-biphenylyl)-N-3-isothiazolyl-6-phthalazinesulfonamide]
63.2	COc1cc(-c2ccc(F)c(C)c2)c(C)cc1-c1nccc2cc(S(=O)(=O)Nc3ccon3)ccc12 [Example 274, 1-(4′-fluoro-5-methoxy-2,3′-dimethyl-4-biphenylyl)-N-3-isoxazolyl-6-isoquinolinesulfonamide]
38.1	COc1cc(-c2ccc(F)c(C)c2)c(C)cc1-c1ncnc2cc(S(=O)(=O)Nc3ccon3)ccc12 [Example 261, 4-(4′-fluoro-5-methoxy-2,3′-dimethyl-4-biphenylyl)-N-3-isoxazolyl-7-quinazolinesulfonamide]

same assay, conditions: in-vitro Nav 1.7 PX (PatchXpress)

IC50 [nM]	SMILES
40	COc1cc(F)cc(-c2cc(OC)c(-c3nccc4cc(S(=O)(=O)Nc5ccon5)ccc34)cc2F)c1 [Example 305, 1-(2,3′-difluoro-5,5′-dimethoxy-4-biphenylyl)-N-3-isoxazolyl-6-isoquinolinesulfonamide]
